Assay results as given in patent US10538512B2, “Aminoacylindazole immunomodulators for treatment of autoimmune diseases” (The Rockefeller University, priority 2016, dated 2020).

Key:
Human FXIIa = target: T1, Human FXIIa (Homo sapiens, UniProt P00748); assay: Factor XIIa (FXIIa) inhibitory activity, chromogenic substrate assay; type: biochemical; conditions: Human FXIIa 12.5 nM, Pefachrome XIIa 400 μM, 10 min preincubation
T1 construct: active coagulation factor XII (FXIIa); purchased Enzyme Research Labs
T1 sequence (P00748 373-615 limits assumed): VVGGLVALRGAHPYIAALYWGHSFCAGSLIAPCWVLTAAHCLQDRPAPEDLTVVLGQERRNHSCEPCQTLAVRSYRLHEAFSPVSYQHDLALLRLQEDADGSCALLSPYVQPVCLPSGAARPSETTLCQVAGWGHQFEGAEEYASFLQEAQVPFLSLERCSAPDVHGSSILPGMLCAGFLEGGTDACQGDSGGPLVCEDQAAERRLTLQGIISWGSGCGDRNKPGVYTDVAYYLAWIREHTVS
T1 sequence (P00748 20-372 partner limits assumed): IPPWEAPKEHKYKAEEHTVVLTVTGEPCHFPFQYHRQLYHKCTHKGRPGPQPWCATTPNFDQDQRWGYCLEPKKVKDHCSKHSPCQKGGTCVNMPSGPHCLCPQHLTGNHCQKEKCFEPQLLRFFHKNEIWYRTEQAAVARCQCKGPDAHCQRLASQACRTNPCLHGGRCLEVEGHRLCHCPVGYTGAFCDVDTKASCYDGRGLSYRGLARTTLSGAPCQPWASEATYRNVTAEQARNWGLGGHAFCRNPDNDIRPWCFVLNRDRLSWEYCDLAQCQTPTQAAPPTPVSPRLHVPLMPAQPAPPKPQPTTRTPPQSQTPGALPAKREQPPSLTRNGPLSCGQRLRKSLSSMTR
How it was run: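 Buffer was 0.5× HBSS with 25 mM HEPES pH 7.4 and 0.5× TBS-Tween 0.05%. Enzyme and compound (about 1–100 μM) were preincubated 10 min at room temperature, then Pefachrome XIIa was added at 400 μM final. Substrate cleavage was followed as the rate of A405 change at 37 °C.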

Human alpha-thrombin = target: T2, Human alpha-thrombin (Homo sapiens, UniProt P00734); assay: Thrombin counterscreen for selectivity, fluorogenic substrate assay; type: biochemical; conditions: Human alpha-thrombin 12.5 nM, Boc-Val-Pro-Arg-AMC 20 μM, 10 min preincubation
T2 construct: Human alpha-thrombin (Enzyme Research Labs); purchased Enzyme Research Labs
Description: Counterscreens for Selectivity:
In a 96-well white opaque plate, 80 μl of assay buffer was added to each well. Test compounds were added, and serially diluted as above, to generate a concentration range of approximately 1-100 μM. […] 80 μl of this enzyme solution was added to the assay wells. The enzyme/compound mixtures were incubated for 10 minutes at room temperature. Fluorogenic substrate (Boc-Val-Pro-Arg-7-amido-4-methylcoumarin; Sigma) was added to assay wells at a final concentration of 20 μM. The assay plate was spun for 1 minute at 1500 g and then read at 37° C. in a SpectraMax M2 plate reader (λex=380 nm and λem=460 nm). Activity was quantified as the rate of change in fluorescence, which corresponds to the rate of substrate cleavage.

| Compound | IC50 (Human FXIIa) | IC50 (Human alpha-thrombin) |
| --- | --- | --- |
| Nc1nn(C(=O)[C@H]2CCNc3ccccc32)c2c1C[C@H](O)CC2 (single isomer, unassigned) [Example 167, ((5R*)-3-amino-5-hydroxy-4,5,6,7-tetrahydroindazol-1-yl)((4S*)-1,2,3,4-tetrahydroquinolin-4-yl)methanone] | > 80 µM | > 80 µM |
| CCc1cc2c(C(=O)n3nc(N)c4c3CCCC4)cccc2n1C (single isomer, unassigned) [Example 67, (3-amino-4,5,6,7-tetrahydroindazol-1-yl)(2-ethyl-1-methyl-1H-indol-4-yl)methanone] | > 50 µM | > 50 µM |
| Nc1nn(C(=O)c2ccnc3cc(Cl)ccc23)c2c1CCCC2 [Example 124, (3-amino-4,5,6,7-tetrahydro-2H-indazol-1-yl)(7-chloroquinolin-4-yl)methanone] | 60 µM | 60 µM |
| CCN1CCC(C(=O)n2nc(N)c3c2CCCC3)c2ccccc21 (single isomer, unassigned) [Example 75, (3-amino-4,5,6,7-tetrahydroindazol-1-yl)(1-ethyl-1,2,3,4-tetrahydroquinolin-4-yl)methanone] | > 100 µM | > 100 µM |
| Nc1nn(C(=O)c2cccc3[nH]ncc23)c2c1CCCC2 [Example 157] | 30 µM | > 100 µM |
| O=C(Nc1[nH]nc2c1CCCC2)C1OCCc2ccccc21 (stereo not shown) [Example 14, N-(4,5,6,7-tetrahydro-2H-indazol-3-yl)isochroman-1-carboxamide] | > 10 µM | > 10 µM |
| Cc1csc(C)c1C(=O)n1nc(N)c2c1CCCC2 (single isomer, unassigned) [Example 17, (3-amino-4,5,6,7-tetrahydroindazol-1-yl)(2,4-dimethylthiophen-3-yl)methanone] | > 100 µM | > 100 µM |
| CCc1csc(C)c1C(=O)n1nc2c(c1N)CCCC2 (single isomer, unassigned) [Example 18, (3-Amino-4,5,6,7-tetrahydroindazol-2-yl)(4-ethyl-2-methylthiophen-3-yl)methanone] | 5 µM | > 100 µM |
| Cc1csc(C)c1C(=O)n1cc2c(n1)CCCC2 [Example 35, 2-[(2,4-dimethylthiophen-3-yl)carbonyl]-4,5,6,7-tetrahydro-2H-indazole] | > 100 µM | > 100 µM |
| Nc1c2c(nn1C(=O)[C@H]1CCNc3ccc(F)cc31)C[C@@H](O)CC2 (single isomer, unassigned) [Example 183, ((6S*)-3-amino-6-hydroxy-4,5,6,7-tetrahydroindazol-2-yl)((4S*)-6-fluoro-1,2,3,4-tetrahydroquinolin-4-yl)methanone] | 0.6 µM | > 100 µM |
| Nc1c2c(nn1C(=O)c1cccc3c1ccn3-c1ccccc1)CCCC2 (single isomer, unassigned) [Example 20, (3-amino-4,5,6,7-tetrahydroindazol-2-yl)(1-phenyl-1H-indol-4-yl)methanone] | 17.5 µM | > 100 µM |
| Nc1nn(C(=O)c2cccc3[nH]c(Cl)cc23)c2c1CCCC2 (single isomer, unassigned) [Example 56, (3-amino-4,5,6,7-tetrahydroindazol-1-yl)(2-chloro-1H-indol-4-yl)methanone] | 29 µM | > 100 µM |
| Nc1nn(C(=O)C2CCNc3ccccc32)c2ccccc12 (stereo not shown) [Example 77, (3-amino-1H-indazol-1-yl)(1,2,3,4-tetrahydroquinolin-4-yl)methanone] | > 100 µM | > 100 µM |
| Cc1sc2ccccc2c1C(=O)n1nc2c(c1N)CCCC2 (single isomer, unassigned) [Example 23, (3-Amino-4,5,6,7-tetrahydroindazol-2-yl)(2-methylbenzo[b]thiophen-3-yl)methanone] | 5 µM | > 100 µM |
| Cc1c2c(nn1C(=O)c1cccc3[nH]ccc13)CCCC2 (single isomer, unassigned) [Example 3, (1H-Indol-4-yl)(3-methyl-4,5,6,7-tetrahydroindazol-2-yl)methanone] | 5 µM | 33 µM |
| Nc1c2c(nn1C(=O)C1CCCc3ccccc31)CCCC2 (single isomer, unassigned) [Example 5, (S*)-(3-Amino-4,5,6,7-tetrahydroindazol-2-yl)(1,2,3,4-tetrahydronaphthalen-1-yl)methanone] | 1.7 µM | > 50 µM |
| CCc1cc2c(C(=O)n3nc(N)c4c3CCCC4)cccc2n1CC (single isomer, unassigned) [Example 69, (3-amino-4,5,6,7-tetrahydroindazol-1-yl)(1,2-diethyl-1H-indol-4-yl)methanone] | 35 µM | > 100 µM |
| Nc1nn(C(=O)[C@@H]2CCNc3ccccc32)c2c1C[C@H](O)CC2 (single isomer, unassigned) [Example 168, ((5R*)-3-amino-5-hydroxy-4,5,6,7-tetrahydroindazol-1-yl)((4R*)-1,2,3,4-tetrahydroquinolin-4-yl)methanone] | > 100 µM | > 100 µM |
| Cc1cc2ccc(C(=O)n3nc4c(c3N)CCCC4)cc2o1 [Example 60, (3-amino-4,5,6,7-tetrahydroindazol-2-yl)(2-methylbenzofuran-6-yl)methanone] | 17 µM | 22 µM |
| CS(=O)(=O)N1CCC(C(=O)n2nc3c(c2N)CCCC3)c2ccccc21 (stereo not shown) [Example 99, (3-amino-4,5,6,7-tetrahydroindazol-2-yl)(1-(methylsulfonyl)-1,2,3,4-tetrahydroquinolin-4-yl)methanone] | 1 µM | 22 µM |

The next compounds have a lower IC50 (Human FXIIa) than those just listed; values first:

| IC50 (Human FXIIa) | IC50 (Human alpha-thrombin) | Compound |
| --- | --- | --- |
| 0.05 µM | > 90 µM | Cc1cccc2c1NCC[C@@H]2C(=O)n1nc2c(c1N)C[C@H](O)CC2 (single isomer, unassigned) [Example 218, ((5R*)-3-amino-5-hydroxy-4,5,6,7-tetrahydro-2H-indazol-2-yl)((4S*)-8-methyl-1,2,3,4-tetrahydroquinolin-4-yl)methanone] |
| 0.02 µM | 37 µM | Nc1c2c(nn1C(=O)[C@H]1CCCc3[nH]c(Cl)cc31)CC[C@@H](O)C2 (single isomer, unassigned) [Example 126, ((5R*)-3-amino-5-hydroxy-4,5,6,7-tetrahydroindazol-2-yl)((4S*)-2-chloro-4,5,6,7-tetrahydro-1H-indol-4-yl)methanone] |
| 0.4 µM | 30 µM | Cc1cc2c(o1)CCCC2C(=O)n1nc2c(c1N)CCCC2 (stereo not shown) [Example 85, (3-amino-4,5,6,7-tetrahydro-2H-indazol-2-yl)(2-methyl-4,5,6,7-tetrahydrobenzofuran-4-yl)methanone] |
| 0.5 µM | > 100 µM | CCN1CCC(C(=O)n2nc3c(c2N)CCCC3)c2ccccc21 (single isomer, unassigned) [Example 74, (3-amino-4,5,6,7-tetrahydroindazol-2-yl)(1-ethyl-1,2,3,4-tetrahydroquinolin-4-yl)methanone] |
| 0.5 µM | > 80 µM | Cc1cc2c(s1)CCCC2C(=O)n1nc2c(c1N)CCCC2 (stereo not shown) [Example 86, (3-amino-4,5,6,7-tetrahydroindazol-2-yl)(2-methyl-4,5,6,7-tetrahydrobenzo[b]thiophen-4-yl)methanone] |
| 0.4 µM | 6 µM | O=C(c1cccc2[nH]ccc12)n1cc2c(n1)CCCC2 [Example 27, (1H-indol-4-yl)(4,5,6,7-tetrahydroindazol-2-yl)methanone] |
| 0.2 µM | > 60 µM | Nc1c2c(nn1C(=O)[C@H]1CCNc3ccc(F)cc31)CC[C@H](F)C2 (single isomer, unassigned) [Example 140, ((5S*)-3-amino-5-fluoro-4,5,6,7-tetrahydroindazol-2-yl)((4S*)-6-fluoro-1,2,3,4-tetrahydroquinolin-4-yl)methanone] |
| 0.2 µM | > 50 µM | CCc1cscc1C(=O)n1nc2c(c1N)CCCC2 (single isomer, unassigned) [Example 11, (3-Amino-4,5,6,7-tetrahydroindazol-2-yl)(4-ethylthiophen-3-yl)methanone] |
| 0.1 µM | > 100 µM | Cc1cccc2c1NCC[C@@H]2C(=O)n1nc2c(c1N)CC[C@H](O)C2 (single isomer, unassigned) [Example 198, ((6S*)-3-amino-6-hydroxy-4,5,6,7-tetrahydroindazol-2-yl)((4S*)-8-methyl-1,2,3,4-tetrahydroquinolin-4-yl)methanone] |
